Measured values published in patent US20180214440A1, “ORAL COMPOSITION” (HELPERBY THERAPEUTICS LIMITED, priority 2015, published 2018).

Test system: log phase S. aureus
Assay: Time-kill studies for 240 minutes, Example 3
Type: cell-based
Details: alone at 0.01% w/v, FIG. 6
Protocol: FIGS. 4, 5 and 6 contain the results of the time-kill studies then carried out against log phase S. aureus for 240 minutes (4 hours).
These formulations included chlorhexidine digluconate at either 0.06% w/v, 0.04% w/v, 0.03% w/v or 0.015% w/v.
Corsodyl® Daily Defence mouthwash 0.06% is a commercially available product manufactured by GlaxoSmithKline which contains 0.06% w/v chlorhexidine digluconate.
The time to zero values for each of the FIGS. 4 to 6 are shown below in Table 4.

Cc1nc2ccc(Oc3ccccc3)cc2c2c1CCN2CCc1ccccc1 [HT61, 4-methyl-8-phenoxy-1-(2-phenylethyl)-2,3-dihydro-1H-pyrrolo[3,2-c]quinoline]
antimicrobial activity against log phase S. aureus: does not have significant antimicrobial activity
